Assay results as given in patent US11447460B2, “Compounds and compositions for treating conditions associated with NLRP activity” (Novartis AG, priority 2016, dated 2022).
pIC50: −log10 of the molar value. Read-outs that look alike come from different tables or passages of the source.

System: IL-1β production in PMA-differentiated THP-1 cells
Experiment: IL-1β production in PMA-differentiated THP-1 cells stimulated with gramicidin (hTHP-1 assay, 2% bovine serum; Bioassays 1 and 2)
Type: cell-based, human
Conditions: Homo sapiens, THP-1, hTHP-1 assay containing 2% bovine serum, read-out: Average IC50 of compounds in hTHP-1 assay
In short: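 PMA-differentiated THP-1 cells in 2% FBS RPMI were pre-treated with compound for 1 h, then given gramicidin 5 μM for 2 h, and supernatants were assayed to give IC50. Protocol 1: PMA 10 μg/ml 24 h, 1×10^6 cells/ml, ELISA, 1% DMSO. Protocol 2: PMA 20 ng/ml 16-18 h, 50,000 cells/well, HTRF, 0.38% DMSO.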

Row | SMILES | pIC50 (Table 12, by Example #) | pIC50 (Table 13, by Final Target Number)
1 | CC(C)c1cccc(C(C)C)c1CC(=O)NS(=O)(=O)c1cc(C(C)(C)O)n(C)n1 [Example 66, 2-(2,6-diisopropylphenyl)-N-(5-(2-hydroxypropan-2-yl)-1-methyl-1H-pyrazol-3-ylsulfonyl)acetamide] | 4.22 to 4.82 | 
2 | CC(C)c1cc(F)cc(C(C)C)c1CC(=O)NS(=O)(=O)c1cc2ccccc2o1 [Example 41, N-(benzofuran-2-ylsulfonyl)-2-(4-fluoro-2,6-diisopropylphenyl)acetamide] | 4.82 to 5.30 | 
3 | CC(C)c1cc(F)cc(C(C)C)c1CC(=O)NS(=O)(=O)c1cc(N2CCOCC2)cc(C(C)(C)O)c1 [Example 38, 2-(4-fluoro-2,6-diisopropylphenyl)-N-(3-(2-hydroxypropan-2-yl)-5-morpholinophenylsulfonyl)acetamide] | 4.82 to 5.30 | 
4 | CC(C)c1cc(F)cc(C(C)C)c1CC(=O)NS(=O)(=O)c1cc(-c2ccccc2)cc(C(C)(C)O)c1 [Example 32, 2-(4-fluoro-2,6-diisopropylphenyl)-N-(5-(2-hydroxypropan-2-yl)biphenyl-3-ylsulfonyl)acetamide] | 4.82 to 5.30 | 
5 | CC(C)c1cc(F)cc(C(C)C)c1CC(=O)NS(=O)(=O)c1ccc(CN(C)C)cc1 [Compound 214] |  | > 6.00
6 | CC(C)c1cc(F)cc(C(C)C)c1CC(=O)NS(=O)(=O)c1cnc2ccccc2c1 [Example 40, 2-(4-fluoro-2,6-diisopropylphenyl)-N-(quinolin-3-ylsulfonyl)acetamide] | 4.22 to 4.82 | 
7 | CC(C)c1cc(F)cc(C(C)C)c1CC(=O)NS(=O)(=O)c1cc(C(C)(C)O)n(C)n1 [Example 67, 2-(4-fluoro-2,6-diisopropylphenyl)-N-(5-(2-hydroxypropan-2-yl)-1-methyl-1H-pyrazol-3-ylsulfonyl)acetamide] | 5.30 to 6.00 | 

The remaining lines, values ahead:

Row | pIC50 (Table 12, by Example #) | pIC50 (Table 13, by Final Target Number) | SMILES
8 | 5.30 to 6.00 |  | Cc1ccc(S(=O)(=O)NC(=O)Cc2c(C(C)C)cc(F)cc2C(C)C)cc1C(C)(C)O [Example 45, 2-(4-fluoro-2,6-diisopropylphenyl)-N-(3-(2-hydroxypropan-2-yl)-4-methylphenylsulfonyl)acetamide]
9 | 5.30 to 6.00 |  | Cc1oc(S(=O)(=O)NC(=O)Cc2c(C(C)C)cc(F)cc2C(C)C)cc1C(C)(C)O [Example 18, 2-(4-fluoro-2,6-diisopropylphenyl)-N-(4-(2-hydroxypropan-2-yl)-5-methylfuran-2-ylsulfonyl)acetamide]
10 | > 6.00 |  | CC(C)c1cc(C#N)cc(C(C)C)c1CC(=O)NS(=O)(=O)c1cc(C2(O)CC2)cs1 [Example 16, 2-(4-cyano-2,6-diisopropylphenyl)-N-(4-(1-hydroxycyclopropyl)thiophen-2-ylsulfonyl)acetamide]
11 | > 6.00 |  | CC(C)c1cc(Cl)cc(C(C)C)c1CC(=O)NS(=O)(=O)c1ncc(C(C)(C)O)s1 [Example 70, 2-(4-chloro-2,6-diisopropylphenyl)-N-(5-(2-hydroxypropan-2-yl)thiazol-2-ylsulfonyl)acetamide]
12 | 5.30 to 6.00 |  | CC(C)c1cc(C#N)cc(C(C)C)c1CC(=O)NS(=O)(=O)c1ccc(C(C)(C)O)cc1 [Example 35, 2-(4-cyano-2,6-diisopropylphenyl)-N-(4-(2-hydroxypropan-2-yl)phenylsulfonyl)acetamide]
13 | > 6.00 |  | CC(C)c1ccc(F)c(C(C)C)c1CC(=O)NS(=O)(=O)c1cc(C(C)(C)O)cs1 [Example 11, 2-(3-fluoro-2,6-diisopropylphenyl)-N-(4-(2-hydroxypropan-2-yl)thiophen-2-ylsulfonyl)acetamide]
14 | > 6.00 |  | CC(C)c1cc(C#N)cc(C(C)C)c1CC(=O)NS(=O)(=O)c1cc(C(C)(C)O)cs1 [Example 10, 2-(4-cyano-2,6-diisopropylphenyl)-N-(4-(2-hydroxypropan-2-yl)thiophen-2-ylsulfonyl)acetamide]
